Experimental data reported in patent US20240130690A1, “NON-INVASIVE DETERMINATION OF A PHY[…] OF INTEREST IN A SUBJECT FROM SPECTRAL DATA PROCESSED USING A TRAINED MACHINE LEARNING MODEL” (ISBRG CORP., priority 2021, published 2024).

What was measured:
[1] = Analyte composition of a subject after cannabis consumption (illustrative Table 2); type: in vivo, human; conditions: simplified data set to exemplify the method; for Analyte level, intoxicated state: 1 hr after consumption; for Analyte level, post-intoxicated state: 36 hr after consumption
Excerpt: For example, which is not to be considered limiting, in a THC induced intoxicated sate, a subject may comprise the analyte composition presented in Table 1. It is to be understood that this table presents a simplified data set to exemplify the method described herein. Other analytes, which may include known analytes or ghost analytes, are indicated as analytes A, B . . . C; A′, B′, . . . C′; A″, B″ . . . C″. These other analytes may increase or decrease in response to, or that are correlated with, the physiological condition and they may be included in this analysis.
In this example, the result may be considered positive for a THC-induced intoxicated state if the Index is greater than a preset value which is determined based on an analysis of the analytes determined in subjects who were exposed to a control treatment, or a range of THC under controlled conditions, for example an Index value of (2+A)/(C+ . . . +C) may be an indication of a positive result for the state of THC-induced intoxication.

[2] = cited from earlier work

| Structure (SMILES) | Analyte level, intoxicated state [1] [ng/mL] | Analyte level, post-intoxicated state [1] [ng/mL] | residual THC in serum ([2]; chronic users of marijuana, detected for 24 to 48 hours or longer, serum) [ng/mL] | residual THC in whole blood ([2]; chronic users of marijuana, detected for 24 to 48 hours or longer, whole blood) [ng/mL] | time of THC peak after inhaling ([2]; smoked marijuana) | THC level remaining ([2]; smoked marijuana, for 8 hours or more) [ng/mL] |
| --- | --- | --- | --- | --- | --- | --- |
| CCCCCc1cc(O)c2c(c1)OC(C)(C)C1CCC(CO)=CC21 (stereo not shown) [11-OH-THC, 11-hydroxy THC] | 5 | 2 |  |  |  |  |
| CCCCCc1cc(O)c2c(c1)OC(C)(C)[C@@H]1CCC(C)=C[C@@H]21 [THC, delta-9-tetrahydrocannabinol] | 78 | 8 | 1.0 to 6.4 | 0.5 to 3.2 | first few minutes | 1 to 2 |
| CCCCCc1cc(O)c2c(c1)OC(C)(C)[C@@H]1CCC(C(=O)O)=C[C@@H]21 [THC-COOH, 11-nor-9-carboxy-THC] | 5 | 11 |  |  |  |  |
